Consider 10 molecules from patent US11066369B2, “N-(pyridin-2-yl)pyridine-sulfonamide derivatives and their use in the treatment of disease” (Novartis AG, priority 2016, dated 2021).

What is called EC50 is the concentration giving half of the maximal effect.

Each structure is given as a SMILES string. Where a name gives a salt, the structure may show the parent alone.

One test has as its target T1, delF508-CFTR (Homo sapiens, UniProt P13569, DEL508-508).
T1 construct: functional activity of the CFTR channel (Chloride ion transport) in patient derived primary human bronchial epithelial cells; host or cells: patient-derived primary human bronchial epithelial cells (delF508-CFTR)
As to the kind of experiment: Measurement of delF508-CFTR functional activity in primary human bronchial epithelial cells (HBECs) using Multi-Transepithelial Clamp Circuit (MTECC-24) assay. Format: cell-based. As to conditions: primary CF HBECs; for MTECC24 CFHBEC- Amax %: test compound added 24h before assay plus potentiator, relative to reference combination (2 μM corrector + 0.5 μM potentiator); for EC50: test compound added 24h before assay, in the presence of potentiator, mean of at least two replicates, read-out: MTECC24 CFHBEC- EC50. In outline: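 Compound tested as 10-point, 1-in-3 concentration response (0.1% or 0.2% DMSO), 24 h basolateral pre-incubation, then re-added to both sides. MTECC-24 measured Ieq in ALI-differentiated primary delF508 bronchial cells after amiloride, forskolin activation, potentiator and INH-172 block; data normalized to DMSO baseline, EC50 fitted.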

Test [1] has as its target T2, horseradish peroxidase (HRP) tagged delF508-CFTR (Homo sapiens, UniProt P13569, DEL508-508).
T2 construct: expressed in transfected cells
The test can be described thus: Measurement of delF508-CFTR-HRP surface expression in CFBE41o- cells.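 On DelF508-CFTR-HRP Amax %: percent efficacy relative to reference corrector lumacaftor.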 Format: cell-based. As to conditions: delF508-CFTR-HRP surface expression, CFBE41o- cells; for Emax: read-out: DelF508-CFTR-HRP Amax %; for EC50: read-out: DelF508-CFTR-HRP EC50. In outline:
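Surface-trafficked delF508-CFTR detected via extracellular HRP tag, read as luminescence from a membrane-impermeant substrate in CFBE41o- cells. Cells pre-induced 48h with 500 ng/mL doxycycline, then exposed 24h at 37° C to a 10-point, 3-fold dilution series from 10 μM (DMSO ≤0.5%). Triplicate dose-responses fitted logistically for EC50 after per-plate normalization; fold change versus reference compound.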

T1 sequence (P13569 with tags, fused parts or gaps DEL508-508): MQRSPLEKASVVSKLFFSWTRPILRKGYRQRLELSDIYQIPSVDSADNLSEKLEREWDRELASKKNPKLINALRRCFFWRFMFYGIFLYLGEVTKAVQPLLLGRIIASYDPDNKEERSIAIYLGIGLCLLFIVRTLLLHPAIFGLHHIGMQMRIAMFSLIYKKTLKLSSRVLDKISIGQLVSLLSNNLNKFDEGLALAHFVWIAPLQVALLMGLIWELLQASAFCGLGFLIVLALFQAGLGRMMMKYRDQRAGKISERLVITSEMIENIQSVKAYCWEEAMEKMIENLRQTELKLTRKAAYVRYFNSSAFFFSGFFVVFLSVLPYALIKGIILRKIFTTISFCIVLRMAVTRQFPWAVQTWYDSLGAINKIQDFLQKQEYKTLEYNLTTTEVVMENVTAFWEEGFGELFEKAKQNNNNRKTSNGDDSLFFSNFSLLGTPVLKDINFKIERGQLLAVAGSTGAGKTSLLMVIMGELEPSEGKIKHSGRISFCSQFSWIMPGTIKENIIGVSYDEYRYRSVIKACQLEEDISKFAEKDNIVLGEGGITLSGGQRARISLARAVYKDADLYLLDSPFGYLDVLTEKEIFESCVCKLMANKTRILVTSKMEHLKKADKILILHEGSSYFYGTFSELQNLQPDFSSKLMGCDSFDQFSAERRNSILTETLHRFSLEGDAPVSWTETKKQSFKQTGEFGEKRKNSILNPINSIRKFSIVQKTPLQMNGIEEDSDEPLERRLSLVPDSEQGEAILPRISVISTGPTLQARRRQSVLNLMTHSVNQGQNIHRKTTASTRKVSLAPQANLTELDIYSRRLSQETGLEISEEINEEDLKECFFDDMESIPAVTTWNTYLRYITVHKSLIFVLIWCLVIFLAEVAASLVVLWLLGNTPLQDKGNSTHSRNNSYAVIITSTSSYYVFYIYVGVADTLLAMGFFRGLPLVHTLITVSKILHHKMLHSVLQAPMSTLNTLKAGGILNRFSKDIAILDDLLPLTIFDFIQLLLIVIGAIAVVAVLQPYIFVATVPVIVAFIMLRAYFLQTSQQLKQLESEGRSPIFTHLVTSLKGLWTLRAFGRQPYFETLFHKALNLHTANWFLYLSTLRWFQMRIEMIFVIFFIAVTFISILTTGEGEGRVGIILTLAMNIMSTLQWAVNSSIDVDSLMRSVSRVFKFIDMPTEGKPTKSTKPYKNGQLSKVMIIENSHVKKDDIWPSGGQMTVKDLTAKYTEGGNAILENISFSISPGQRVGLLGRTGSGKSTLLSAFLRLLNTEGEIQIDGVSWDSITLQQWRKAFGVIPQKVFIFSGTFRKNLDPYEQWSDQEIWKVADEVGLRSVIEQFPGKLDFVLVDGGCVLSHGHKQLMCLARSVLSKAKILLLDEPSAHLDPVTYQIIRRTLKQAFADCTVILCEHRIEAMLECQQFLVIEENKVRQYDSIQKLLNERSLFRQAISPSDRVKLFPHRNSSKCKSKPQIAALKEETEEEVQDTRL
T2 sequence (P13569 with tags, fused parts or gaps DEL508-508): as above

With `Cc1ccccc1-c1nc(NS(=O)(=O)c2ccnc(N)c2)ccc1Cl` [Example 57, 2-amino-N-(5-chloro-6-(o-tolyl)pyridin-2-yl)pyridine-4-sulfonamide], on delF508-CFTR, the “MTECC24 CFHBEC- Amax %” value turned out to be 72.9% and the EC50 stood at 118 nM. In test [1], the Emax is 285% and the EC50 is 1080 nM.

As for `Nc1cc(S(=O)(=O)Nc2ccc(Cl)c(-c3ccccc3C(F)(F)F)n2)ccn1` [Example 61, 2-amino-N-(5-chloro-6-(2-(trifluoromethyl)phenyl)pyridin-2-yl)pyridine-4-sulfonamide], on delF508-CFTR, the “MTECC24 CFHBEC- Amax %” value is given as 74.0% and the EC50 was 103 nM. For the same molecule, in test [1], the Emax was found to be 251% and the EC50 came to 2620 nM.

As to `COc1ccc(F)cc1-c1nc(NS(=O)(=O)c2cccc(N)n2)ccc1Cl` [Example 62, 6-amino-N-(5-chloro-6-(5-fluoro-2-methoxyphenyl)pyridin-2-yl)pyridine-2-sulfonamide], on delF508-CFTR, the “MTECC24 CFHBEC- Amax %” value stood at 46.1% and the EC50 came to 51.2 nM. Besides, in test [1], the Emax was found to be 240% and the EC50 is 1730 nM.

As to `Cc1c(C#N)cccc1-c1nc(NS(=O)(=O)c2cccc(N)n2)ccc1Cl` [Example 67, 6-amino-N-(5-chloro-6-(3-cyano-2-methylphenyl)pyridin-2-yl)pyridine-2-sulfonamide], on delF508-CFTR, the “MTECC24 CFHBEC- Amax %” value is 45.8% and the EC50 is 114 nM. In test [1], the Emax was 214% and the EC50 came out at 1840 nM.

For `Nc1cccc(S(=O)(=O)Nc2ccc(Cl)c(-c3cccc(C(F)(F)F)c3)n2)n1` [Example 73, 6-amino-N-(5-chloro-6-(3-(trifluoromethyl)phenyl)pyridin-2-yl)pyridine-2-sulfonamide], on delF508-CFTR, the “MTECC24 CFHBEC- Amax %” value is 64.2% and the EC50 is 134 nM. For the same molecule, in test [1], the Emax turned out to be 163% and the EC50 was determined as 4240 nM.

As for `Cc1cccc(C)c1-c1nc(NS(=O)(=O)c2cccnc2N)ccc1Cl` [Example 74, 2-amino-N-(5-chloro-6-(2,6-dimethylphenyl)pyridin-2-yl)pyridine-3-sulfonamide], at delF508-CFTR, the “MTECC24 CFHBEC- Amax %” value was 67.3% and the EC50 was found to be 283 nM. For the same molecule, in test [1], the Emax was determined as 158% and the 50% effective concentration (EC50) was 2580 nM.

In the case of `Nc1cccc(S(=O)(=O)Nc2ccc(Cl)c(-c3c(F)cccc3F)n2)n1` [Example 80, 6-amino-N-(5-chloro-6-(2,6-difluorophenyl)pyridin-2-yl)pyridine-2-sulfonamide], at delF508-CFTR, the “MTECC24 CFHBEC- Amax %” value turned out to be 50.7% and the EC50 was 96 nM. In addition, in test [1], the Emax amounted to 137% and the EC50 is 2280 nM.

As to `Cc1ccc(OC(F)(F)F)cc1-c1nc(NS(=O)(=O)c2cccc(N)n2)ccc1Cl` [Example 89, 6-amino-N-(5-chloro-6-(2-methyl-5-(trifluoromethoxy)phenyl)pyridin-2-yl)pyridine-2-sulfonamide], at delF508-CFTR, the “MTECC24 CFHBEC- Amax %” value is recorded as 35.7% and the EC50 stood at 39.9 nM. In test [1], the Emax is 91.5% and the EC50 came out at 3860 nM.

`Cc1ccccc1-c1nc(NS(=O)(=O)c2cccc(N3CCC[C@@H](N)C3)n2)ccc1C(F)(F)F` [Example 102, (R)-6-(3-aminopiperidin-1-yl)-N-(6-(o-tolyl)-5-(trifluoromethyl)pyridin-2-yl)pyridine-2-sulfonamide Hydrochloride]: at delF508-CFTR, the “MTECC24 CFHBEC- Amax %” value turned out to be 54.3% and the concentration giving a half-maximal response (EC50) was 136 nM. Moreover, in test [1], the Emax was 577% and the EC50 was 3280 nM.

In the case of `Cc1ccccc1-c1nc(NS(=O)(=O)c2cccc(N3CCC[C@H](N)C3)n2)ccc1C(F)(F)F` [Example 103, (S)-6-(3-aminopiperidin-1-yl)-N-(6-(o-tolyl)-5-(trifluoromethyl)pyridin-2-yl)pyridine-2-sulfonamide Hydrochloride], on delF508-CFTR, the “MTECC24 CFHBEC- Amax %” value came to 67.8% and the EC50 was found to be 94.8 nM. Moreover, in test [1], the Emax was 370% and the half-maximal effective concentration (EC50) was found to be 2970 nM.
